Experimental data reported in PubChem BioAssay AID248 (DTP/NCI, 2004).
Where “and” joins values, the source holds several entries; their conditions need not be identical. Identical values can stand only once. Inconclusive results and toxic doses are left out. No stated cut-off is given here; in the data, active means T/C of 150% or more; inactive means T/C below 125%.

System: L1210 leukemia ip in BDF1 mice, survival T/C
Assay: NCI In Vivo Anticancer Drug Screen. Data for tumor model L1210 Leukemia (intraperitoneal) in B6D2F1 (BDF1) mice
Conditions: endpoint: mean survival time, higher = longer survival
Outline: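 Antitumor effect is assessed in tumor-bearing animals. Survival in the compound arm is compared with a vehicle-dosed control arm and expressed as their quotient.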

[1] = dose: 6.25 mg/kg/injection, schedule: Q01DX009 (ip), vehicle: saline
[2] = dose: 12.5 mg/kg/injection, schedule: Q01DX009 (ip), vehicle: saline
[3] = dose: 25.0 mg/kg/injection, schedule: Q01DX009 (ip), vehicle: saline
[4] = dose: 25.0 mg/kg/injection, schedule: Q04DX003 (ip), vehicle: saline
[5] = dose: 50.0 mg/kg/injection, schedule: Q04DX003 (ip), vehicle: saline
[6] = dose: 100.0 mg/kg/injection, schedule: Q04DX003 (ip), vehicle: saline
[7] = dose: 100.0 mg/kg/injection, schedule: Q01DX001 (ip), vehicle: carboxymethylcellulose (CMC)
[8] = dose: 12.5 mg/kg/injection, schedule: Q04DX003 (ip), vehicle: saline
[9] = dose: 100.0 mg/kg/injection, schedule: Q01DX001 (ip), vehicle: saline
[10] = dose: 200.0 mg/kg/injection, schedule: Q01DX001 (ip), vehicle: saline
[11] = dose: 400.0 mg/kg/injection, schedule: Q01DX001 (ip), vehicle: saline
[12] = dose: 100.0 mg/kg/injection, schedule: Q04DX003 (ip), vehicle: Klucel (hydroxypropylcellulose) (HPC)
[13] = dose: 50.0 mg/kg/injection, schedule: Q01DX001 (ip), vehicle: saline
[14] = dose: 100.0 mg/kg/injection, schedule: Q01DX001 (ip), vehicle: Klucel (hydroxypropylcellulose) (HPC)
[15] = dose: 100.0 mg/kg/injection, schedule: Q01DX009 (ip), vehicle: saline with Tween-80
[16] = dose: 200.0 mg/kg/injection, schedule: Q01DX001 (ip), vehicle: Klucel (hydroxypropylcellulose) (HPC)
[17] = dose: 200.0 mg/kg/injection, schedule: Q01DX009 (ip), vehicle: saline with Tween-80
[18] = dose: 200.0 mg/kg/injection, schedule: Q04DX003 (ip), vehicle: Klucel (hydroxypropylcellulose) (HPC)
[19] = dose: 400.0 mg/kg/injection, schedule: Q04DX003 (ip), vehicle: Klucel (hydroxypropylcellulose) (HPC)
[20] = dose: 25.0 mg/kg/injection, schedule: Q01DX009 (ip), vehicle: Klucel (hydroxypropylcellulose) (HPC)
[21] = dose: 50.0 mg/kg/injection, schedule: Q01DX009 (ip), vehicle: Klucel (hydroxypropylcellulose) (HPC)
[22] = dose: 100.0 mg/kg/injection, schedule: Q01DX009 (ip), vehicle: Klucel (hydroxypropylcellulose) (HPC)
[23] = dose: 400.0 mg/kg/injection, schedule: Q01DX009 (ip), vehicle: Klucel (hydroxypropylcellulose) (HPC)

Measured: T/C

CN1CCN=C(c2ccccc2)c2cc(Cl)ccc21
inactive: [1] 110 % of control | [2] 101 % of control | [3] 94 % of control | [4] 93 % of control | dose: 50.0 mg/kg/injection, schedule: Q01DX009 (ip), vehicle: saline 100 % of control | [5] 93 % of control | dose: 100.0 mg/kg/injection, schedule: Q01DX009 (ip), vehicle: saline 95 % of control | [6] 98 % of control

CCc1ccc(C2=C(Cl)C(=O)C(c3ccc(CC)cc3)=C(Cl)C2=O)cc1
inactive: dose: 10.0 mg/kg/injection, schedule: Q01DX001 (ip), vehicle: carboxymethylcellulose (CMC) 100 % of control | dose: 20.0 mg/kg/injection, schedule: Q01DX001 (ip), vehicle: carboxymethylcellulose (CMC) 100 % of control | dose: 40.0 mg/kg/injection, schedule: Q01DX001 (ip), vehicle: carboxymethylcellulose (CMC) 102 % of control | dose: 80.0 mg/kg/injection, schedule: Q01DX001 (ip), vehicle: carboxymethylcellulose (CMC) 100 % of control | [7] 88 % of control

C=CC=O
inactive: dose: 3.0 mg/kg/injection, schedule: Q01DX009 (ip), vehicle: saline 96 % of control | dose: 3.12 mg/kg/injection, schedule: Q01DX009 (ip), vehicle: saline 98 % of control | dose: 3.12 mg/kg/injection, schedule: Q04DX003 (ip), vehicle: saline 91 % of control | dose: 6.0 mg/kg/injection, schedule: Q01DX009 (ip), vehicle: saline 102 % of control | [1] 90 % of control | dose: 6.25 mg/kg/injection, schedule: Q04DX003 (ip), vehicle: saline 97 % of control | dose: 7.5 mg/kg/injection, schedule: Q04DX003 (ip), vehicle: saline 88 % of control | dose: 12.0 mg/kg/injection, schedule: Q01DX009 (ip), vehicle: saline 102 % of control | dose: 12.0 mg/kg/injection, schedule: Q04DX003 (ip), vehicle: Klucel (hydroxypropylcellulose) (HPC) 98 % of control | [8] 89 % of control | dose: 25.0 mg/kg/injection, schedule: Q04DX003 (ip), vehicle: Klucel (hydroxypropylcellulose) (HPC) 101 % of control | [9] 117 % of control | [10] 109 % of control | [11] 98 % of control

CCCCOc1ccc(Nc2c3ccccc3nc3ccccc23)cc1
inactive: [12] 123 % of control

Cc1c(C)c(O)c2c(c1C)C(C)C(=O)OC2=O (stereo unspecified)
inactive: dose: 5.0 mg/kg/injection, schedule: Q01DX001 (ip), vehicle: saline 104 % of control | dose: 10.0 mg/kg/injection, schedule: Q01DX001 (ip), vehicle: saline 100 % of control | dose: 20.0 mg/kg/injection, schedule: Q01DX001 (ip), vehicle: saline 92 % of control | dose: 40.0 mg/kg/injection, schedule: Q01DX001 (ip), vehicle: saline 97 % of control

COc1ccc(C(SCC(NC(=O)OCc2ccccc2)C(=O)O)c2ccc(OC)cc2)cc1 (stereo unspecified)
inactive: dose: 75.0 mg/kg/injection, schedule: Q01DX001 (ip), vehicle: carboxymethylcellulose (CMC) 91 % of control | dose: 150.0 mg/kg/injection, schedule: Q01DX001 (ip), vehicle: carboxymethylcellulose (CMC) 91 % of control | dose: 300.0 mg/kg/injection, schedule: Q01DX001 (ip), vehicle: carboxymethylcellulose (CMC) 89 % of control

CN(Cc1ccccc1)c1ccccc1
inactive: [13] 97 % of control | [9] 97 % of control | [10] 97 % of control | [11] 97 % of control

COC(=O)C1=C(C(=O)OC)[N+](C)(C)N=C1[O-]
inactive: [4] 110 % of control | [5] 104 % of control | [6] 95 % of control and 101 % of control

CC1C[N-]CC(C)C1.CC1C[N-]CC(C)C1.[Cl][Pt+2]([Cl])([Cl])[Cl] (stereo unspecified)
inactive: [2] 107 % of control | [8] 87 % of control | [3] 102 % of control | [4] 87 % of control | [5] 95 % of control and 106 % of control | [6] 91 % of control

CCCCCCCCOC(=O)CC
inactive: dose: 100.0 mg/kg/injection, schedule: Q04DX002 (ip), vehicle: saline 111 % of control | dose: 200.0 mg/kg/injection, schedule: Q04DX002 (ip), vehicle: saline 107 % of control | dose: 400.0 mg/kg/injection, schedule: Q04DX002 (ip), vehicle: saline 100 % of control

Nc1ccccc1C(=O)c1ccccc1
inactive: [14] 94 % of control | [15] 90 % of control | [12] 98 % of control | dose: 100.0 mg/kg/injection, schedule: Q04DX003 (ip), vehicle: saline with Tween-80 93 % of control | [16] 93 % of control | [17] 95 % of control | [18] 98 % of control | dose: 200.0 mg/kg/injection, schedule: Q04DX003 (ip), vehicle: saline with Tween-80 95 % of control | dose: 400.0 mg/kg/injection, schedule: Q04DX003 (ip), vehicle: saline with Tween-80 95 % of control

O=C(O)C(Br)C(Br)C(=O)Nc1cccc(Cl)c1 (stereo unspecified)
inactive: dose: 100.0 mg/kg/injection, schedule: Q04DX002 (ip), vehicle: saline with Tween-80 91 % of control | dose: 200.0 mg/kg/injection, schedule: Q04DX002 (ip), vehicle: saline with Tween-80 95 % of control | dose: 400.0 mg/kg/injection, schedule: Q04DX002 (ip), vehicle: saline with Tween-80 88 % of control

CCOC(=O)C(C)C(O)c1ccc(OC)cc1 (stereo unspecified)
inactive: [15] 93 % of control | [17] 93 % of control

N#Cc1cccnc1Cl
inactive: [14] 100 % of control | [12] 96 % of control | [16] 94 % of control | [18] 87 % of control | dose: 400.0 mg/kg/injection, schedule: Q01DX001 (ip), vehicle: Klucel (hydroxypropylcellulose) (HPC) 100 % of control | [19] 99 % of control

CN(C)c1ccc(/C=N/NC(=O)CNC(=O)c2ccc(Cl)cc2Cl)cc1
inactive: dose: 50.0 mg/kg/injection, schedule: Q01DX009 (ip), vehicle: saline with Tween-80 86 % of control | [15] 88 % of control

CCCCC(=O)c1ccc(OC)c(C)c1
inactive: [7] 101 % of control | dose: 200.0 mg/kg/injection, schedule: Q01DX001 (ip), vehicle: carboxymethylcellulose (CMC) 97 % of control | dose: 400.0 mg/kg/injection, schedule: Q01DX001 (ip), vehicle: carboxymethylcellulose (CMC) 103 % of control

Cc1cc(=O)oc2cc(OC(=O)Nc3cccc(Cl)c3Cl)ccc12
inactive: [20] 89 % of control | [21] 93 % of control | [22] 98 % of control

CC(C)(C)C(Br)C(=O)Nc1ccccc1 (stereo unspecified)
inactive: [9] 104 % of control | [10] 102 % of control | [11] 102 % of control

O=C([O-])c1ccccc1[I+]c1ccc(C2CCCCC2)cc1
inactive: [13] 100 % of control | [9] 100 % of control | [10] 105 % of control | [11] 103 % of control

COc1ccccc1OCC(O)COC(N)=O (stereo unspecified)
inactive: [20] 100 % of control | [21] 103 % of control | [22] 106 % of control | dose: 200.0 mg/kg/injection, schedule: Q01DX009 (ip), vehicle: Klucel (hydroxypropylcellulose) (HPC) 103 % of control | [23] 106 % of control

C#CC(=O)CCCCCCl
inactive: dose: 6.25 mg/kg/injection, schedule: Q01DX009 (sc), vehicle: olive oil, sesame oil, peanut oil 100 % of control | dose: 12.5 mg/kg/injection, schedule: Q01DX009 (sc), vehicle: olive oil, sesame oil, peanut oil 94 % of control | dose: 12.5 mg/kg/injection, schedule: Q04DX002 (sc), vehicle: olive oil, sesame oil, peanut oil 103 % of control | dose: 25.0 mg/kg/injection, schedule: Q01DX009 (sc), vehicle: olive oil, sesame oil, peanut oil 97 % of control | dose: 25.0 mg/kg/injection, schedule: Q04DX002 (sc), vehicle: olive oil, sesame oil, peanut oil 95 % of control

C=CCNC(=S)Nc1cc(Cl)ccc1OC
inactive: [22] 90 % of control | [12] 94 % of control | [18] 92 % of control | [23] 86 % of control | [19] 94 % of control
